How the values were obtained:
[1] = tested on: chickweed; assay: Test B preemergence/postemergence greenhouse plant response rating 0 to 10; format: in vivo, Stellaria media; conditions: 0 to 10 scale
Summary of the method: (§1)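 Planted seeds are treated preemergence with compound dissolved in a non-phytotoxic solvent, while postemergence applications go onto plants of two to eighteen cm. Plants stay in the greenhouse twelve to sixteen days and are then rated visually relative to controls.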

[2] = tested on: corn; assay: as above; format: in vivo, Zea mays; conditions: 0 to 10 scale
Summary of the method: as §1

[3] = tested on: crabgrass; assay: as above; format: in vivo, Digitaria spp.; conditions: 0 to 10 scale
Summary of the method: as §1

[4] = tested on: morningglory; assay: as above; format: in vivo, Ipomoea hederacea; conditions: 0 to 10 scale
Summary of the method: as §1

[5] = tested on: rape; assay: as above; format: in vivo, Brassica napus; conditions: 0 to 10 scale
Summary of the method: as §1

[6] = tested on: sorghum; assay: as above; format: in vivo, Sorghum bicolor; conditions: 0 to 10 scale
Summary of the method: as §1

[7] = tested on: soybean; assay: as above; format: in vivo, Glycine max; conditions: 0 to 10 scale
Summary of the method: as §1

[8] = tested on: wheat; assay: as above; format: in vivo, Triticum aestivum; conditions: 0 to 10 scale
Summary of the method: as §1

[9] = tested on: wild oat; assay: as above; format: in vivo, Avena fatua; conditions: 0 to 10 scale
Summary of the method: as §1

[10] = tested on: purple nutsedge; assay: as above; format: in vivo, Cyperus rotundus; conditions: 0 to 10 scale
Summary of the method: as §1

[11] = tested on: barley; assay: Test C preemergence/postemergence greenhouse plant response rating 0 to 100; format: in vivo, Hordeum vulgare; conditions: POSTEMERGENCE; for Plant response rating Barley Igri: 0 to 100 scale
Description: (§2) The compounds evaluated in this test were formulated in a non-phytoxic solvent and applied to the soil surface before plant seedlings emerged (preemergence application), to water that covered the soil surface (flood application), and to plants that were in the one-to-four leaf stage (postemergence application). A sandy loam soil was used for the preemergence and postemergence tests, while a silt loam soil was used in the flood test. Water depth was approximately 2.5 cm for the flood test and was maintained at this level for the duration of the test. Plant species in the preemergence and postemergence tests consisted of barley (Hordeum vulgare), bedstraw (Galium aparine), blackgrass (Alopecurus myosuroides), chickweed (Stellaria media), corn (Zea mays), cotton (Gossypium hirsutum), crabgrass (Digitaria sanguinalis), downy brome (Bromus tectorum), giant foxtail (Setaria faberii), lambsquarters (Chenopodium album), morningglory (Ipomoea hederacea), pigweed ([…]), rape (Brassica napus), ryegrass (Lolium multiflorum), sorghum (Sorghum bicolor), soybean (Glycine max), speedwell (Veronica persica), sugar beet (Beta vulgaris), velvetleaf (Abutilon theophrasti), wheat (Triticum aestivum), wild buckwheat (Polygonum convolvulus), and wild oat (Avena fatua). All plant species were planted one day before application of the compound for the preemergence portion-of this test. Plantings of these species were adjusted to produce plants of appropriate size for the post-emergence portion of the test. […] All plant species were grown using normal greenhouse practices. Visual evaluations of injury expressed on treated plants, when compared to untreated controls, were recorded approximately fourteen to twenty one days after application of the test compound. […] A dash (-) response means no test result.

[12] = tested on: bedstraw; assay: as above; format: in vivo, Galium aparine; conditions: POSTEMERGENCE; for Plant response rating, Bedstraw: 0 to 100 scale
Description: as §2

[13] = tested on: chickweed; assay: as above; format: in vivo, Stellaria media; conditions: POSTEMERGENCE; for Plant response rating, Chickweed: 0 to 100 scale
Description: as §2

[14] = tested on: downy brome; assay: as above; format: in vivo, Bromus tectorum; conditions: POSTEMERGENCE; for Plant response rating Downy Brome: 0 to 100 scale
Description: as §2

[15] = tested on: morningglory; assay: as above; format: in vivo, Ipomoea hederacea; conditions: POSTEMERGENCE; for Plant response rating, Morningglory: 0 to 100 scale
Description: as §2

[16] = tested on: soybean; assay: as above; format: in vivo, Glycine max; conditions: POSTEMERGENCE; for Plant response rating, Soybean: 0 to 100 scale
Description: as §2

[17] = tested on: wild buckwheat; assay: as above; format: in vivo, Polygonum convolvulus; conditions: POSTEMERGENCE; for Plant response rating, Wild buckwheat: 0 to 100 scale
Description: as §2

[18] = tested on: umbrella sedge; assay: Test C flood test plant response rating 0 to 100; format: in vivo, Cyperus difformis; conditions: for Plant response rating Umbrella sedge: flood test species listed under POSTEMERGENCE, 0 to 100 scale
Description: as §2

CCC(C)Oc1cc(-c2nn3c(c2Cl)CCCC3)c(F)cc1Cl (stereo not shown) [Compound 48]
4: Plant response rating, Chickweed ([1]; Rate 200 g/ha, PREEMERGENCE) | Plant response rating, Rape ([5]; PREEMERGENCE, Rate 50 g/ha) | Plant response rating, Sorghum ([6]; POSTEMERGENCE, Rate 50 g/ha) | Plant response rating, Wild oat ([9]; POSTEMERGENCE, Rate 50 g/ha) | Plant response rating, Nutsedge ([10]; POSTEMERGENCE, Rate 50 g/ha)
2: Plant response rating, Crabgrass ([3]; PREEMERGENCE, Rate 50 g/ha) | Plant response rating, Wheat ([8]; Rate 200 g/ha, PREEMERGENCE)
85: Plant response rating (0 to 100), Wild buckwheat ([17]; Rate 16 g/ha)
95: Plant response rating, Morningglory ([15]; 250 g/ha)
80: Plant response rating, Chickweed ([13]; 250 g/ha)
100: Plant response rating, Bedstraw ([12]; 62 g/ha) | Plant response rating, Bedstraw ([12]; 250 g/ha) | Plant response rating, Wild buckwheat ([17]; 62 g/ha) | Plant response rating, Wild buckwheat ([17]; 250 g/ha)
40: Plant response rating Barley Igri ([11]; 250 g/ha) | Plant response rating (0 to 100), Bedstraw ([12]; Rate 16 g/ha) | Plant response rating Downy Brome ([14]; 62 g/ha) | Plant response rating, Soybean ([16]; 62 g/ha) | Plant response rating Umbrella sedge ([18]; 62 g/ha)
70: Plant response rating Downy Brome ([14]; 250 g/ha) | Plant response rating Umbrella sedge ([18]; 250 g/ha)
50: Plant response rating (0 to 100), Morningglory ([15]; Rate 16 g/ha) | Plant response rating, Soybean ([16]; 250 g/ha)
20: Plant response rating (0 to 100), Barley Igri ([11]; Rate 16 g/ha) | Plant response rating (0 to 100), Bedstraw ([12]; Rate 4 g/ha) | Plant response rating (0 to 100), Downy Brome ([14]; Rate 16 g/ha)
9: Plant response rating, Chickweed ([1]; POSTEMERGENCE, Rate 50 g/ha) | Plant response rating, Crabgrass ([3]; POSTEMERGENCE, Rate 200 g/ha) | Plant response rating, Crabgrass ([3]; Rate 200 g/ha, PREEMERGENCE) | Plant response rating, Rape ([5]; Rate 200 g/ha, PREEMERGENCE)
3: Plant response rating, Corn ([2]; POSTEMERGENCE, Rate 50 g/ha) | Plant response rating, Corn ([2]; POSTEMERGENCE, Rate 200 g/ha) | Plant response rating, Morningglory ([4]; Rate 200 g/ha, PREEMERGENCE)
10: Plant response rating, Morningglory ([4]; POSTEMERGENCE, Rate 50 g/ha) | Plant response rating, Morningglory ([4]; Rate 200 g/ha, POSTEMERGENCE) | Plant response rating (0 to 100), Barley Igri ([11]; Rate 4 g/ha) | Plant response rating (0 to 100), Chickweed ([13]; Rate 4 g/ha) | Plant response rating (0 to 100), Umbrella sedge ([18]; POSTEMERGENCE section, flood test, Rate 4 g/ha) | Plant response rating (0 to 100), Umbrella sedge ([18]; Rate 16 g/ha, under POSTEMERGENCE head (flood test species))
60: Plant response rating, Chickweed ([13]; 62 g/ha) | Plant response rating, Morningglory ([15]; 62 g/ha) | Plant response rating (0 to 100), Wild buckwheat ([17]; Rate 4 g/ha)
7: Plant response rating, Soybean ([7]; POSTEMERGENCE, Rate 50 g/ha) | Plant response rating, Soybean ([7]; Rate 200 g/ha, POSTEMERGENCE)
5: Plant response rating, Wheat ([8]; POSTEMERGENCE, Rate 50 g/ha) | Plant response rating, Nutsedge ([10]; Rate 200 g/ha, POSTEMERGENCE)
1: Plant response rating, Corn ([2]; Rate 200 g/ha, PREEMERGENCE) | Plant response rating, Morningglory ([4]; PREEMERGENCE, Rate 50 g/ha) | Plant response rating, Sorghum ([6]; Rate 200 g/ha, PREEMERGENCE)
6: Plant response rating, Rape ([5]; Rate 200 g/ha, POSTEMERGENCE) | Plant response rating, Sorghum ([6]; Rate 200 g/ha, POSTEMERGENCE) | Plant response rating, Wheat ([8]; Rate 200 g/ha, POSTEMERGENCE) | Plant response rating, Wild oat ([9]; Rate 200 g/ha, POSTEMERGENCE)
30: Plant response rating Barley Igri ([11]; 62 g/ha) | Plant response rating (0 to 100), Chickweed ([13]; Rate 16 g/ha) | Plant response rating (0 to 100), Morningglory ([15]; Rate 4 g/ha) | Plant response rating (0 to 100), Soybean ([16]; Rate 4 g/ha) | Plant response rating (0 to 100), Soybean ([16]; Rate 16 g/ha)
8: Plant response rating, Chickweed ([1]; POSTEMERGENCE, Rate 200 g/ha) | Plant response rating, Crabgrass ([3]; POSTEMERGENCE, Rate 50 g/ha) | Plant response rating, Rape ([5]; POSTEMERGENCE, Rate 50 g/ha)
0: Plant response rating, Corn ([2]; PREEMERGENCE, Rate 50 g/ha) | Plant response rating, Sorghum ([6]; PREEMERGENCE, Rate 50 g/ha) | Plant response rating, Soybean ([7]; PREEMERGENCE, Rate 50 g/ha) | Plant response rating, Soybean ([7]; Rate 200 g/ha, PREEMERGENCE) | Plant response rating, Wheat ([8]; PREEMERGENCE, Rate 50 g/ha) | Plant response rating, Wild oat ([9]; PREEMERGENCE, Rate 50 g/ha) | Plant response rating, Nutsedge ([10]; PREEMERGENCE, Rate 50 g/ha) | Plant response rating, Nutsedge ([10]; Rate 200 g/ha, PREEMERGENCE) | Plant response rating (0 to 100), Downy Brome ([14]; Rate 4 g/ha)
